Test results from article PMC11259170, “Small-molecule probe for IBD risk variant GPR65 I231L alters cytokine signaling networks through positive allosteric modulation” (Science Advances, 2024).
Read-outs that look alike come from different tables or passages of the source.

What was measured:
[1] = test system: human monocyte-derived dendritic cells (MDDCs); experiment: Cytokine (TNF) production in human MDDCs, ELISA; type: cell-based; conditions: LPS 100 ng/ml, 3 hours
Protocol: Human blood samples were collected from healthy donors at the Blood Donor Center at Massachusetts General Hospital in compliance with all relevant ethical regulations and according to protocol 2018P001504 approved by the Mass General Brigham Institutional Review Board. Donors provided informed written consent. Human PBMCs were isolated by density gradient separation using Ficoll-Paque PLUS (VWR- GE Life Sciences, catalog no. 17144002), as previously described ([54]). Isolated PBMCs were incubated overnight in DMEM (10% FBS, 0.2% sodium bicarbonate, 1X Glutamax) at 37°C, 5% CO2. Human monocytes were isolated from an unpurified Buffy Coat using RosetteSep human monocyte enrichment cocktail (StemCell Technologies, 15068) and frozen same day in FBS with 10% DMSO. […]
Frozen human monocytes were thawed and allowed to recover overnight in DMEM [10% FBS, 1% p/s, IL-4 (50 ng/ml; Peprotech, 200-04), and GM-CSF (50 ng/ml; Peprotech, 300-03)] at 37°C and 5% CO2. […] Supernatants were collected and TNF production was measured by ELISA (Invitrogen, 88-7346-88). Plates were read on BMG Labtech PHERAstar FSX. […]

Lipophilicity (logD) = type: physicochemical
hGPR65 = molecular target: T1, hGPR65 (Homo sapiens, UniProt Q8IYL9); experiment: cAMP detection (Lance Ultra), GPR65 KO HeLa reconstituted with hGPR65; 21K screen dose confirmation; type: cell-based; conditions: HeLa GPR65 KO + hGPR65, pH 7.1, 30 min, normalized to DMSO and 100 μM forskolin; read-out: WT EC50
T1 construct: expressed in transfected cells; host or cells: HeLa (ATCC CCL-2), lentiviral transduction, pLX317
T1 sequence (Q8IYL9 whole entry): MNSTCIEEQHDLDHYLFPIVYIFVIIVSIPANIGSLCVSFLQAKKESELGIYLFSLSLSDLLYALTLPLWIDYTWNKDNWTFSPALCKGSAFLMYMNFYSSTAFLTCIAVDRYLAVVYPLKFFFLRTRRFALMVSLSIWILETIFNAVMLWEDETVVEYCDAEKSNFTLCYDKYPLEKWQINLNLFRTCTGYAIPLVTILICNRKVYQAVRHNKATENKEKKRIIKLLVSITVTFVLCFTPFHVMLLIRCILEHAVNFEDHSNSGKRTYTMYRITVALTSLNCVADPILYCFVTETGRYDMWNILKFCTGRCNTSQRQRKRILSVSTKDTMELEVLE

[2] = test system: murine macrophages and T cells; parameters: method as in PMID 22445881; conditions: murine macrophages and T cells ref 33; cited from earlier work

Structure (SMILES) | TNF secretion ([1]; 5 μM) | TNF secretion ([1]; 20 μM) | logD (Lipophilicity (logD); pH 7.4, pH7.4, read-out: LogD (pH7.4)) | logD (Lipophilicity (logD); read-out: lipophilicity (logD)) | EC50 (hGPR65) [µM] | cAMP production through the Gαs-coupled pathway [2]
Cc1ccc(NC(=O)c2cnn3c(O)cc(-c4ccc(COC(C)C)cc4)nc23)nc1 [BRD5075, O=C(NC1=NC=C(C)C=C1)C2=C3N(N=C2)C(O)=CC(C4=CC=C(COC(C)C)C=C4)=N3] | did not reach statistical significance | further TNF suppression | 3.57 | 3.57 |  | 
CN1N=C(SCc2ccc(Cl)cc2Cl)Sc2c1cnn(C)c2=O [BTB09089, reference compound] |  |  |  |  | 6 | increased cAMP production
